# Data taken from patent US20240199612A1, “IMIDAZOPYRIDINYL INHIBITORS OF PLASMA KALLIKREIN” (SHIRE HUMAN GENETIC THERAPIES, INC., priority 2021, published 2024).
# Target: human activated kallikrein enzyme (Homo sapiens, UniProt P03952)
# Assay: Inhibition of human activated plasma kallikrein, fluorogenic peptide substrate (PFR-AMC) assay, 500 pM enzyme format
# Format: biochemical
# Details: format with 500 pM activated kallikrein, 300 uM PFR-AMC, 30 min preincubation, 10 min reaction, room temperature; read-out: Primary Dose Response Assay: Average EC50
# Description: Inhibitory Activity of Exemplary Compounds against Plasma Kallikrein.
# Compounds were evaluated for inhibition of the human activated kallikrein enzyme in two formats of an assay employing a fluorogenic peptide substrate. In one assay format, the concentrations of reagents were as follows: 20 mM Tris pH 7.5, 1 mM EDTA, 150 mM sodium chloride, 0.1% PEG-400, 0.1% Triton X-100, 500 pM activated kallikrein enzyme, 300 uM Pro-Phe-Arg-7-amido-4-methylcoumarin (PFR-AMC) substrate. Prior to reaction initiation with substrate, enzyme and inhibitors were preincubated for 30 min at room temperature. After initiation with substrate, reactions were incubated for 10 min at room temperature and fluorescence emission at 460 nm from 380 nm excitation measured with a microplate reader. In another assay format, the concentrations of reagents were as follows: 20 mM Tris pH 7.5, 1 mM EDTA, 150 mM sodium chloride, 0.1% PEG-400, 0.1% Triton X-100, 5 pM activated kallikrein enzyme, 300 uM PFR-AMC substrate. Prior to reaction initiation with substrate, enzyme and inhibitors were preincubated for 30 min at room temperature. After initiation with substrate, reactions were incubated for 18 hr at room temperature and fluorescence emission at 460 nm from 380 nm excitation measured with a microplate reader.
# Chain of human activated kallikrein enzyme (P03952 391-638 limits assumed): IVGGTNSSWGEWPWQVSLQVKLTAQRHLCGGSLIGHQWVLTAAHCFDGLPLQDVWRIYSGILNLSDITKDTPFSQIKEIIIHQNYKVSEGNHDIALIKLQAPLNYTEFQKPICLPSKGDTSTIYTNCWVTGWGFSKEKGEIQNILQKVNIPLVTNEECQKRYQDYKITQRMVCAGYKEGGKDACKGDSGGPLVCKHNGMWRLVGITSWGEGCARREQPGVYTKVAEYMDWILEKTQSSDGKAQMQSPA
# Chain of human activated kallikrein enzyme (P03952 20-390 partner limits assumed): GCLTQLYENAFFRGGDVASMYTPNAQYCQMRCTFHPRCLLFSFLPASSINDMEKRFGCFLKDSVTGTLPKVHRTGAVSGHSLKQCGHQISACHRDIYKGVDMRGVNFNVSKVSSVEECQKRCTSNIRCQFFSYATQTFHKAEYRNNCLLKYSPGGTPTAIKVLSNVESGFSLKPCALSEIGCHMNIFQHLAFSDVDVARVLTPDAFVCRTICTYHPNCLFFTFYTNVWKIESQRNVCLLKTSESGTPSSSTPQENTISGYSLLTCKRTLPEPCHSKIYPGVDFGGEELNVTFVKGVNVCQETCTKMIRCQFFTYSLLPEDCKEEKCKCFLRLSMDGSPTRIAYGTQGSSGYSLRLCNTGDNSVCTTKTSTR
row,EC50,SMILES
1,< 0.005 µM,"O=C(Nc1cc(N2C[C@@H](O)C[C@@H]2c2cn3cc(C4CC4)ccc3n2)ncn1)OCc1cc(Cl)ccn1 [Compound I-28, (4-chloropyridin-2-yl)methyl (6-((2R,4S)-2-(6-cyclopropylimidazo[1,2-a]pyridin-2-yl)-4-hydroxypyrrolidin-1-yl)pyrimidin-4-yl)carbamate]"
2,0.5 to 9 µM,"O=C(Nc1cc(NCc2cn3cc(C4CC4)ccc3n2)ncn1)NC1Cc2ccc(Cl)cc21 (centres unmarked) [Compound I-32, 1-(4-chlorobicyclo[4.2.0]octa-1(6),2,4-trien-7-yl)-3-(6-(((6-cyclopropylimidazo[1,2-a]pyridin-2-yl)methyl)amino)pyrimidin-4-yl)urea]"
3,0.005 to 0.05 µM,"O=C(Nc1cc(NCc2cn3cc(C4CC4)ccc3n2)ncn1)OCc1cccc(Cl)c1 [Compound I-1, 3-Chlorobenzyl (6-(((6-cyclopropylimidazo[1,2-a]pyridin-2-yl)methyl)amino)pyrimidin-4-yl)carbamate]"
4,0.05 to 0.5 µM,"O=C(NCc1nccc(Cl)n1)Nc1cc(NCc2cn3cc(C4CC4)ccc3n2)ncn1 [Compound I-29, 1-((4-chloropyrimidin-2-yl)methyl)-3-(6-(((6-cyclopropylimidazo[1,2-a]pyridin-2-yl)methyl)amino)-pyrimidin-4-yl)urea]"
5,0.05 to 0.5 µM,"COc1cccc(COC(=O)Nc2cc(NCc3cn4cc(C5CC5)ccc4n3)ncn2)c1 [Compound I-4, 3-methoxybenzyl (6-(((6-cyclopropylimidazo[1,2-a]pyridin-2-yl)methyl)amino)pyrimidin-4-yl)carbamate]"
6,0.05 to 0.5 µM,"CC(OC(=O)Nc1cc2c(cn1)ncn2Cc1cn2cc(C3CC3)ccc2n1)c1cccc(Cl)c1 (centres unmarked) [Compound I-17, 1-(3-chlorophenyl)ethyl (1-((6-cyclopropylimidazo[1,2-a]pyridin-2-yl)methyl)-1H-imidazo[4,5-c]pyridin-6-yl)carbamate]"
7,< 0.005 µM,"O=C(Nc1cc(OCc2cn3cc(C4CC4)ccc3n2)ccn1)OCc1cc(Cl)ccc1-n1cnnn1 [Compound I-12, 5-chloro-2-(1H-tetrazol-1-yl)benzyl (4-((6-cyclopropylimidazo[1,2-a]pyridin-2-yl)methoxy)pyridin-2-yl)carbamate]"
8,0.05 to 0.5 µM,"O=C(Nc1cc(N2C[C@@H](O)C[C@@H]2c2cn3cc(C4CC4)ccc3n2)ncn1)N1CC(c2ncccn2)C1 [Compound I-33, N-(6-((2R,4S)-2-(6-cyclopropylimidazo[1,2-a]pyridin-2-yl)-4-hydroxypyrrolidin-1-yl)pyrimidin-4-yl)-3-(pyrimidin-2-yl)azetidine-1-carboxamide]"
9,< 0.005 µM,"O=C(Nc1cc(NCc2cn3cc(C4CC4)ccc3n2)ncn1)OCc1cc(Cl)ccc1-n1cnnn1 [Compound I-8, 5-chloro-2-(1H-tetrazol-1-yl)benzyl (6-(((6-cyclopropylimidazo[1,2-a]pyridin-2-yl)methyl)amino)pyrimidin-4-yl)carbamate]"
10,0.5 to 9 µM,"COc1ccnc(CNC(=O)Nc2cc(NCc3cn4cc(C5CC5)ccc4n3)ncn2)n1 [Compound I-30, 1-(6-(((6-cyclopropylimidazo[1,2-a]pyridin-2-yl)methyl)amino)pyrimidin-4-yl)-3-((4-methoxypyrimidin-2-yl)methyl)urea]"
11,< 0.005 µM,"O=C(Nc1nccc2nn(Cc3cn4cc(C5CC5)ccc4n3)cc12)OCc1cc(Cl)ccc1-n1cnnn1 [Compound I-22, 5-chloro-2-(1H-tetrazol-1-yl)benzyl (2-((6-cyclopropylimidazo[1,2-a]pyridin-2-yl)methyl)-2H-pyrazolo[4,3-c]pyridin-4-yl)carbamate]"
12,0.5 to 9 µM,"O=C(Nc1cc(N2C[C@@H](O)C[C@@H]2c2cn3cc(C4CC4)ccc3n2)ncn1)N1CC(c2ccccc2)C1 [Compound I-31, N-(6-((2R,4S)-2-(6-cyclopropylimidazo[1,2-a]pyridin-2-yl)-4-hydroxypyrrolidin-1-yl)pyrimidin-4-yl)-3-phenylazetidine-1-carboxamide]"
13,0.05 to 0.5 µM,"O=C(Nc1cc2c(cn1)ncn2Cc1cn2cc(C3CC3)ccc2n1)OCc1cccc(Cl)c1 [Compound I-16, 3-chlorobenzyl (1-((6-cyclopropylimidazo[1,2-a]pyridin-2-yl)methyl)-1H-imidazo[4,5-c]pyridin-6-yl)carbamate]"
14,0.05 to 0.5 µM,"O=C(Nc1cc2c(cn1)nnn2Cc1cn2cc(C3CC3)ccc2n1)OCc1cccc(Cl)c1 [Compound I-20, 3-chlorobenzyl (1-((6-cyclopropylimidazo[1,2-a]pyridin-2-yl)methyl)-1H-[1,2,3]triazolo[4,5-c]pyridin-6-yl)carbamate]"
15,0.05 to 0.5 µM,"CCC(OC(=O)Nc1cc(NCc2cn3cc(C4CC4)ccc3n2)ncn1)c1cccc(Cl)c1 (centres unmarked) [Compound I-6, 1-(3-chlorophenyl)propyl (6-(((6-cyclopropylimidazo[1,2-a]pyridin-2-yl)methyl)amino)pyrimidin-4-yl)carbamate]"
16,0.005 to 0.05 µM,"CC(OC(=O)Nc1cc(NCc2cn3cc(C4CC4)ccc3n2)ncn1)c1cccc(Cl)c1F (centres unmarked) [Compound I-7, 1-(3-chloro-2-fluorophenyl)ethyl (6-(((6-cyclopropylimidazo[1,2-a]pyridin-2-yl)methyl)amino)pyrimidin-4-yl)carbamate]"
17,> 9 µM,"O=C(Nc1cc(NCc2cn3cc(C4CC4)ccc3n2)ncn1)N1CC(c2cccc(Cl)c2)C1 [Compound I-25, 3-(3-chlorophenyl)-N-(6-(((6-cyclopropylimidazo[1,2-a]pyridin-2-yl)methyl)amino)pyrimidin-4-yl)azetidine-1-carboxamide]"
18,0.05 to 0.5 µM,"O=C(NCc1cc(Cl)ccn1)Nc1cc(NCc2cn3cc(C4CC4)ccc3n2)ncn1 [Compound I-27, 1-((4-chloropyridin-2-yl)methyl)-3-(6-(((6-cyclopropylimidazo[1,2-a]pyridin-2-yl)methyl)amino)pyrimidin-4-yl)urea]"
19,0.005 to 0.05 µM,"O=C(Nc1cc(NCc2cn3cc(C4CC4)ccc3n2)ncn1)OCC(O)c1cccc(Cl)c1 (centres unmarked) [Compound I-9, 2-(3-chlorophenyl)-2-hydroxyethyl (6-(((6-cyclopropylimidazo[1,2-a]pyridin-2-yl)methyl)amino)pyrimidin-4-yl)carbamate]"
20,0.005 to 0.05 µM,O=C(Nc1nccc2nn(Cc3cn4cc(C5CC5)ccc4n3)cc12)OCc1cccc(Cl)c1 [Compound I-19]
21,< 0.005 µM,"O=C(Nc1cc2c(cn1)ncn2Cc1cn2cc(C3CC3)ccc2n1)OCc1cc(Cl)ccc1-n1cnnn1 [Compound I-23, 5-chloro-2-(1H-tetrazol-1-yl)benzyl (1-((6-cyclopropylimidazo[1,2-a]pyridin-2-yl)methyl)-1H-imidazo[4,5-c]pyridin-6-yl)carbamate]"
22,0.05 to 0.5 µM,"O=C(Nc1cn2c(Cc3cn4cc(C5CC5)ccc4n3)nnc2cn1)OCc1cccc(Cl)c1 [Compound I-14, 3-chlorobenzyl (3-((6-cyclopropylimidazo[1,2-a]pyridin-2-yl)methyl)-[1,2,4]triazolo[4,3-a]pyrazin-6-yl)carbamate]"
23,0.5 to 9 µM,"O=C(NCc1cccc(Cl)c1)Nc1cc(NCc2cn3cc(C4CC4)ccc3n2)ncn1 [Compound I-24, 1-(3-chlorobenzyl)-3-(6-(((6-cyclopropylimidazo[1,2-a]pyridin-2-yl)methyl)amino)pyrimidin-4-yl)urea]"
24,0.5 to 9 µM,"C[C@H](OC(=O)Nc1cc(NCc2cn3cc(C4CC4)ccc3n2)ncn1)c1cccc(Cl)c1 [Compound I-3, (S)-1-(3-chlorophenyl)ethyl (6-(((6-cyclopropylimidazo[1,2-a]pyridin-2-yl)methyl)amino)pyrimidin-4-yl)carbamate]"
25,0.005 to 0.05 µM,"Cc1ccnc(COC(=O)Nc2cc(NCc3cn4cc(C5CC5)ccc4n3)ncn2)n1 [Compound I-34, (4-methylpyrimidin-2-yl)methyl (6-(((6-cyclopropylimidazo[1,2-a]pyridin-2-yl)methyl)amino)pyrimidin-4-yl)carbamate]"
26,< 0.005 µM,"C[C@@H](OC(=O)Nc1cc(NCc2cn3cc(C4CC4)ccc3n2)ncn1)c1cccc(Cl)c1 [Compound I-2, (R)-1-(3-chlorophenyl)ethyl (6-(((6-cyclopropylimidazo[1,2-a]pyridin-2-yl)methyl)amino)pyrimidin-4-yl)carbamate]"

# Target: T1, plasma kallikrein (Homo sapiens, UniProt P03952)
# T1 construct: from tissue; host or cells: sodium citrate collected human plasma (78% final)
# Assay: Neat human plasma assay (contact pathway-activated plasma, FXIIa, PFR-AMC substrate)
# Format: biochemical
# Details: sodium citrate human plasma, 78% final plasma, 10 nM human FXIIa, 100 μM PFR-AMC, room temperature
# Description: Neat Human and Rat Plasma Assay
# To analyze inhibition of plasma kallikrein in an ex vivo setting, the potency of compounds was measure in contact pathway-activated plasma assays. In a fluorogenic peptide substrate assay, test compounds dissolved in DMSO were added to sodium citrate collected human or rat plasma in a 96-well microplate. Alternatively, citrated plasma was collected from rats administered the compounds orally or by IV. 10 nM of human FXIIa (Enzyme Research Laboratories) diluted in PKa buffer (20 mM Tris-HCl, pH 7.5, 150 mM NaCl, 1 mM EDTA, 0.1% PEG-8000, and 0.1% Triton X-100) was added to the plasma, followed by the 100 μM of the profluorescent, synthetic plasma kallikrein substrate PFR-AMC (also diluted in PKa buffer). Final plasma concentration in the reaction was 78%. Fluorescence was immediately monitored by excitation/emission wavelengths of 360 nm/480 nm respectively over a period of 5 minutes in a microplate reader. The resulting linear increase in fluorescence emission (reflecting PKa proteolysis of PFR-AMC substrate) was fit to extract a proteolytic rate (fluorescent units over time), and this rate was subsequently plotted against compound inhibitor concentration. Resulting plots were fit to a standard 4-parameter IC50/IC90 equation to determine min/max values, IC50/90, and slope. All experimental steps were performed at room temperature.
# T1 sequence (P03952 391-638 limits assumed): as the sequence (P03952 391-638 limits assumed) above
# T1 sequence (P03952 20-390 partner limits assumed): as the sequence (P03952 20-390 partner limits assumed) above
row,IC90,SMILES
1,≤ 2.5 µM,"O=C(Nc1cc(N2C[C@@H](O)C[C@@H]2c2cn3cc(C4CC4)ccc3n2)ncn1)OCc1cc(Cl)ccn1 [Compound I-28, (4-chloropyridin-2-yl)methyl (6-((2R,4S)-2-(6-cyclopropylimidazo[1,2-a]pyridin-2-yl)-4-hydroxypyrrolidin-1-yl)pyrimidin-4-yl)carbamate]"
2,7.5 to 15 µM,"O=C(Nc1cc(OCc2cn3cc(C4CC4)ccc3n2)ccn1)OCc1cc(Cl)ccc1-n1cnnn1 [Compound I-12, 5-chloro-2-(1H-tetrazol-1-yl)benzyl (4-((6-cyclopropylimidazo[1,2-a]pyridin-2-yl)methoxy)pyridin-2-yl)carbamate]"
3,≤ 2.5 µM,"O=C(Nc1cc(NCc2cn3cc(C4CC4)ccc3n2)ncn1)OCc1cc(Cl)ccc1-n1cnnn1 [Compound I-8, 5-chloro-2-(1H-tetrazol-1-yl)benzyl (6-(((6-cyclopropylimidazo[1,2-a]pyridin-2-yl)methyl)amino)pyrimidin-4-yl)carbamate]"
